Source: US12263175B2, “Optimised dosage of diaminophenothiazines in populations” (WisTa Laboratories Ltd., priority 2018, dated 2025)

Test: Treatment-emergent adverse events, three Phase 3 double-blind studies, LMTM pooled safety population
Format: in vivo, human
Description: Three Phase 3, double-blind, controlled studies of LMTM have been completed (one each in subjects with mild and mild to moderate AD and one in subjects with bvFTD). Results of the AD studies have been published (Gauthier et al., 2016; Wilcock et al., 2018).
In these three studies, 1897 subjects received at least one dose of LMTM (Safety Population [Five additional subjects with AD, participating at one site in Study TRx-237-005, received a dose of study drug but were excluded from all analyses due to GCP violations], 1679 subjects with AD and 218 subjects with bvFTD). Of these, 860 subjects received the control (LMTM 8 mg/day, 750 with AD and 110 with bvFTD) and 1037 subjects received at least one dose of LMTM in the higher doses of 150 to 250 mg/day (929 with AD and 108 with bvFTD).
The incidence of the most common TEAEs are summarised by dose in the following Table EX1. This includes TEAEs that occurred at an incidence of ≥2.0% either in subjects randomised to LMTM 8 mg/day or higher doses (150 to 250 mg/day). The subset of TEAEs that were severe in intensity are also included.
The TEAEs are further analysed by using groupings of related MedDRA (Medical Dictionary for Regulatory Activities) preferred terms to better estimate the incidence of potentially treatment related adverse events. The incidence of all groupings for subjects categorised by dose (8 mg/day versus higher doses of 150 to 250 mg/day) is shown in the following Table EX2: […]

[1] = LMTM 8 mg/day (N = 860), Severe Intensity
[2] = subjects treated with LMTM 8 mg/day

Compound: CN(C)c1ccc2c(c1)Sc1cc(N(C)C)ccc1N2 [LMTM, leuco-methylthioninium bis(hydromethanesulfonate)]
- Grouped TEAE incidence: Behavioral Symptoms (LMTM 8 mg/day (N = 860)): 114 (13.3%) n (%)
- Grouped TEAE incidence: Falls and Related Terms (LMTM 8 mg/day (N = 860)): 188 (21.9%) n (%)
- Grouped TEAE incidence: Hepatic Function Impairment (LMTM 8 mg/day (N = 860)): 13 (1.5%) n (%)
- Grouped TEAE incidence: Hypersensitivity (LMTM 8 mg/day (N = 860)): 42 (4.9%) n (%)
- Grouped TEAE incidence: Ischaemic Events, Inclusive of Myocardial Infarction (LMTM 8 mg/day (N = 860)): 20 (2.3%) n (%)
- Grouped TEAE incidence: Psychotic Symptoms (LMTM 8 mg/day (N = 860)): 28 (3.3%) n (%)
- Grouped TEAE incidence: Renal Function Impairment (LMTM 8 mg/day (N = 860)): 29 (3.4%) n (%)
- Grouped TEAE incidence: Renal and Urinary Disorders (Including Infections) (LMTM 8 mg/day (N = 860)): 135 (15.7%) n (%)
- Grouped TEAE incidence: Sleep Disorders (LMTM 8 mg/day (N = 860)): 41 (4.8%) n (%)
- Grouped TEAE incidence: Targeted Gastrointestinal Events (LMTM 8 mg/day (N = 860)): 183 (21.3%) n (%)
- No. (%) of Subjects Reporting at Least One TEAE (LMTM 8 mg/day (N = 860), All): 720 (83.7%) n (%)
- TEAE incidence: Abdominal pain (LMTM 8 mg/day (N = 860), All): 16 (1.9%) n (%)
- TEAE incidence: Abdominal pain upper (LMTM 8 mg/day (N = 860), All): 10 (1.2%) n (%)
- TEAE incidence: Agitation (LMTM 8 mg/day (N = 860), All): 46 (5.3%) n (%)
- TEAE incidence: Anaemia (LMTM 8 mg/day (N = 860), All): 19 (2.2%) n (%)
- TEAE incidence: Anxiety (LMTM 8 mg/day (N = 860), All): 52 (6.0%) n (%)
- TEAE incidence: Arthralgia (LMTM 8 mg/day (N = 860), All): 28 (3.3%) n (%)
- TEAE incidence: Atrial fibrillation (LMTM 8 mg/day (N = 860), All): 17 (2.0%) n (%)
- TEAE incidence: Back pain (LMTM 8 mg/day (N = 860), All): 31 (3.6%) n (%)
- TEAE incidence: Blood creatine phosphokinase increased (LMTM 8 mg/day (N = 860), All): 18 (2.1%) n (%)
- TEAE incidence: Blood folate decreased (LMTM 8 mg/day (N = 860), All): 45 (5.2%) n (%)
- TEAE incidence: Bronchitis (LMTM 8 mg/day (N = 860), All): 27 (3.1%) n (%)
- TEAE incidence: Cerebral microhaemorrhage (LMTM 8 mg/day (N = 860), All): 24 (2.8%) n (%)
- TEAE incidence: Confusional state (LMTM 8 mg/day (N = 860), All): 22 (2.6%) n (%)
- TEAE incidence: Constipation (LMTM 8 mg/day (N = 860), All): 23 (2.7%) n (%)
- TEAE incidence: Contusion (LMTM 8 mg/day (N = 860), All): 24 (2.8%) n (%)
- TEAE incidence: Cough (LMTM 8 mg/day (N = 860), All): 37 (4.3%) n (%)
- TEAE incidence: Decreased appetite (LMTM 8 mg/day (N = 860), All): 13 (1.5%) n (%)
- TEAE incidence: Dehydration (LMTM 8 mg/day (N = 860), All): 17 (2.0%) n (%)
- TEAE incidence: Depression (LMTM 8 mg/day (N = 860), All): 41 (4.8%) n (%)
- TEAE incidence: Diarrhoea (LMTM 8 mg/day (N = 860), All): 109 (12.7%) n (%)
- TEAE incidence: Dizziness (LMTM 8 mg/day (N = 860), All): 49 (5.7%) n (%)
- TEAE incidence: Dysuria (LMTM 8 mg/day (N = 860), All): 6 (0.7%) n (%)
- TEAE incidence: Fall (LMTM 8 mg/day (N = 860), All): 90 (10.5%) n (%)
- TEAE incidence: Fatigue (LMTM 8 mg/day (N = 860), All): 26 (3.0%) n (%)
- TEAE incidence: Folate deficiency (LMTM 8 mg/day (N = 860), All): 17 (2.0%) n (%)
- TEAE incidence: Haemoglobin decreased (LMTM 8 mg/day (N = 860), All): 6 (0.7%) n (%)
- TEAE incidence: Hallucination (LMTM 8 mg/day (N = 860), All): 13 (1.5%) n (%)
- TEAE incidence: Headache (LMTM 8 mg/day (N = 860), All): 55 (6.4%) n (%)
- TEAE incidence: Hypertension (LMTM 8 mg/day (N = 860), All): 20 (2.3%) n (%)
- TEAE incidence: Insomnia (LMTM 8 mg/day (N = 860), All): 29 (3.4%) n (%)
- TEAE incidence: Laceration (LMTM 8 mg/day (N = 860), All): 17 (2.0%) n (%)
- TEAE incidence: Micturition urgency (LMTM 8 mg/day (N = 860), All): 11 (1.3%) n (%)
- TEAE incidence: Nasopharyngitis (LMTM 8 mg/day (N = 860), All): 40 (4.7%) n (%)
- TEAE incidence: Nausea (LMTM 8 mg/day (N = 860), All): 39 (4.5%) n (%)
- TEAE incidence: Oedema peripheral (LMTM 8 mg/day (N = 860), All): 19 (2.2%) n (%)
- TEAE incidence: Pain in extremity (LMTM 8 mg/day (N = 860), All): 19 (2.2%) n (%)
- TEAE incidence: Pollakiuria (LMTM 8 mg/day (N = 860), All): 19 (2.2%) n (%)
- TEAE incidence: Rash (LMTM 8 mg/day (N = 860), All): 21 (2.4%) n (%)
- TEAE incidence: Suicidal ideation (LMTM 8 mg/day (N = 860), All): 27 (3.1%) n (%)
- TEAE incidence: Syncope (LMTM 8 mg/day (N = 860), All): 26 (3.0%) n (%)
- TEAE incidence: Tremor (LMTM 8 mg/day (N = 860), All): 20 (2.3%) n (%)
- TEAE incidence: Upper respiratory tract infection (LMTM 8 mg/day (N = 860), All): 35 (4.1%) n (%)
- TEAE incidence: Urinary incontinence (LMTM 8 mg/day (N = 860), All): 34 (4.0%) n (%)
- TEAE incidence: Urinary tract infection (LMTM 8 mg/day (N = 860), All): 76 (8.8%) n (%)
- TEAE incidence: Vitamin B12 decreased (LMTM 8 mg/day (N = 860), All): 23 (2.7%) n (%)
- TEAE incidence: Vomiting (LMTM 8 mg/day (N = 860), All): 20 (2.3%) n (%)
- TEAE incidence: Weight decreased (LMTM 8 mg/day (N = 860), All): 18 (2.1%) n (%)
- No. (%) of Subjects Reporting at Least One TEAE [1]: 86 (10.0%) n (%)
- TEAE incidence: Abdominal pain [1]: 1 (0.1%) n (%)
- TEAE incidence: Abdominal pain upper [1]: 1 (0.1%) n (%)
- TEAE incidence: Agitation [1]: 1 (0.1%) n (%)
- TEAE incidence: Anaemia [1]: 1 (0.1%) n (%)
- TEAE incidence: Anxiety [1]: 0 n (%)
- TEAE incidence: Arthralgia [1]: 0 n (%)
- TEAE incidence: Atrial fibrillation [1]: 3 (0.3%) n (%)
- TEAE incidence: Back pain [1]: 1 (0.1%) n (%)
- TEAE incidence: Blood creatine phosphokinase increased [1]: 0 n (%)
- TEAE incidence: Blood folate decreased [1]: 0 n (%)
- TEAE incidence: Bronchitis [1]: 0 n (%)
- TEAE incidence: Cerebral microhaemorrhage [1]: 0 n (%)
- TEAE incidence: Confusional state [1]: 2 (0.2%) n (%)
- TEAE incidence: Constipation [1]: 2 (0.2%) n (%)
- TEAE incidence: Contusion [1]: 0 n (%)
- TEAE incidence: Cough [1]: 0 n (%)
- TEAE incidence: Decreased appetite [1]: 0 n (%)
- TEAE incidence: Dehydration [1]: 4 (0.5%) n (%)
- TEAE incidence: Depression [1]: 0 n (%)
- TEAE incidence: Diarrhoea [1]: 5 (0.6%) n (%)
- TEAE incidence: Dizziness [1]: 3 (0.3%) n (%)
- TEAE incidence: Dysuria [1]: 0 n (%)
- TEAE incidence: Fall [1]: 4 (0.5%) n (%)
- TEAE incidence: Fatigue [1]: 0 n (%)
- TEAE incidence: Folate deficiency [1]: 0 n (%)
- TEAE incidence: Haemoglobin decreased [1]: 0 n (%)
- TEAE incidence: Hallucination [1]: 0 n (%)
- TEAE incidence: Headache [1]: 1 (0.1%) n (%)
- TEAE incidence: Hypertension [1]: 0 n (%)
- TEAE incidence: Insomnia [1]: 0 n (%)
- TEAE incidence: Laceration [1]: 0 n (%)
- TEAE incidence: Micturition urgency [1]: 0 n (%)
- TEAE incidence: Nasopharyngitis [1]: 0 n (%)
- TEAE incidence: Nausea [1]: 1 (0.1%) n (%)
- TEAE incidence: Oedema peripheral [1]: 0 n (%)
- TEAE incidence: Pain in extremity [1]: 1 (0.1%) n (%)
- TEAE incidence: Pollakiuria [1]: 0 n (%)
- TEAE incidence: Rash [1]: 0 n (%)
- TEAE incidence: Suicidal ideation [1]: 2 (0.2%) n (%)
- TEAE incidence: Syncope [1]: 1 (0.1%) n (%)
- TEAE incidence: Tremor [1]: 0 n (%)
- TEAE incidence: Upper respiratory tract infection [1]: 0 n (%)
- TEAE incidence: Urinary incontinence [1]: 0 n (%)
- TEAE incidence: Urinary tract infection [1]: 1 (0.1%) n (%)
- TEAE incidence: Vitamin B12 decreased [1]: 0 n (%)
- TEAE incidence: Vomiting [1]: 0 n (%)
- TEAE incidence: Weight decreased [1]: 0 n (%)
- Grouped TEAE incidence: Falls and Related Terms [2]: 22%
- Grouped TEAE incidence: GI events [2]: 21%
- Grouped TEAE incidence: Renal and Urinary Disorders (Including Infections) [2]: 16%
- Grouped TEAE incidence: behavioural symptoms [2]: 13%
- Grouped TEAE incidence: terms indicative of anaemia [2]: 13%
